From patent US20100009907A1, “Glucagon-Like Peptides and Uses Thereof” (AMYLIN PHARMACEUTICALS, INC., priority 2006, published 2010)
Where no end group is shown, it is not given here.

Tests used:
[1] = target: T1, GLP-1 receptor (RINm5F cell membranes) (Rattus norvegicus, UniProt P32301); experiment: GLP-1 receptor binding assay (GLP RBA), [125I]GLP-1 displacement; details: [125I]GLP-1 tracer
T1 construct: RINm5F insulinoma cells expressing endogenous GLP-1 receptors; endogenous in cells; host or cells: RINm5F cell membranes
T1 sequence (P32301 22-463): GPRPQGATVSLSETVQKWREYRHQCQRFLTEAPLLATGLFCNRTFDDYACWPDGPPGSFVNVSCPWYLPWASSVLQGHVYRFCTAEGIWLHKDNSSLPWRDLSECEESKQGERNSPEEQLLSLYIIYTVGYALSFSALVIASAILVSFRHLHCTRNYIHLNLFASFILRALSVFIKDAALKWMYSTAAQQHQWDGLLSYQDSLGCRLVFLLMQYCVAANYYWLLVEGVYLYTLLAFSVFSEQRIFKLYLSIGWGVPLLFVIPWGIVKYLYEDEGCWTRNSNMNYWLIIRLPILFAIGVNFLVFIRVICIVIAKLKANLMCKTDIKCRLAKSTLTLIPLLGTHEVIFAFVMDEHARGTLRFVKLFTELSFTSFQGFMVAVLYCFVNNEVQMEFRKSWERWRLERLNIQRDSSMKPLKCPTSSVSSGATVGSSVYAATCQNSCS
Description: Reaction mixtures are filtered through glass filter pads presoaked with 0.3% PEI solution and rinsed with ice-cold phosphate buffered saline. Bound counts are determined using a scintillation counter. Binding affinities are calculated using GraphPad Prism software (GraphPad Software, Inc., San Diego, Calif.).

[2] = target: T2, RINm5f cells expressing endogenous GLP-1, calcitonin, and GIP receptors (Rattus norvegicus, UniProt P32301); experiment: GLP/GIP/CT cAMP (RIN) assay; type: cell-based
T2 construct: RINm5f cells expressing endogenous GLP-1, calcitonin, and GIP receptors; endogenous in cells; host or cells: RINm5f cells
T2 sequence (P32301 22-463): T1 sequence (P32301 22-463)
Description: In addition, receptor binding can be measured using cells prepared from confluent cultures of RINm5f cells expressing endogenous GLP-1, calcitonin, and GIP receptors. Cells, and peptide or buffer solution are combined in 384-well plates. After a 30-minute incubation at room temperature in air, cAMP content is measured as recommended in the Perkin-Elmer AlphaScreen kit instructions.
Cells, and peptide or buffer solutions are combined in 384-well plates and incubated at room temperature in air for 30-minutes. cAMP content can then be measured according to recommendations in the Perkin-Elmer AlphaScreen™ kit instructions using the Perkin Elmer Fusion fluorimeter and data are analyzed using XLfit software (IDBS).

[3] = Acute food intake assay (FI Assay); type: in vivo, NIH/Swiss mice; details: 1000 μg/kg intraperitoneal, relative to vehicle
Description: The effect of various test peptides on food intake is investigated using an acute food intake assay. This assay measures food consumption in lean, group-housed, overnight-fasted NIH/Swiss mice. Twelve mice are housed three to a cage. […] Decreased, as well as increased, food intake is measured. Testing of the various doses of the polypeptide generates ED50s.
Female NIH/Swiss mice (8-24 weeks old) are group housed with a 12:12 hour light:dark cycle with lights on at 0600. Water and a standard pelleted mouse chow diet are available ad libitum, except as noted. Animals are fasted starting at approximately 1500 hrs, 1 day prior to experiment. The morning of the experiment, animals are divided into experimental groups.
At time=0 min, all animals are given an intraperitoneal injection of vehicle or compound in an amount ranging from about 63 to 1000 μg/kg, and immediately given a pre-weighed amount (10-15 g) of the standard chow.

Row | Molecule | IC50 [1] | GLP/GIP/CT cAMP(RIN) EC50 [2] | also measured
1 | CC[C@H](C)[C@H](NC(=O)[C@H](CC(C)C)NC(=O)[C@H](Cc1c[nH]c2ccccc12)NC(=O)[C@H](CCC(=O)O)NC(=O)[C@@H](NC(=O)[C@H](Cc1ccccc1)NC(=O)[C@H](CCC(=O)O)NC(=O)[C@H](CCCCN)NC(=O)[C@H](C)NC(=O)[C@H](C)NC(=O)[C@H](CCCCN)NC(=O)[C@H](CCC(=O)O)NC(=O)[C@H](CCC(=O)O)NC(=O)[C@H](CC(C)C)NC(=O)[C@H](Cc1ccc(O)cc1)NC(=O)[C@H](CCC(=O)O)NC(=O)[C@@H](NC(=O)[C@@H](NC(=O)[C@H](CC(=O)O)NC(=O)[C@H](CC(N)=O)NC(=O)[C@@H](NC(=O)[C@H](Cc1ccc(O)cc1)NC(=O)[C@@H](NC(=O)CNC(=O)[C@H](CCC(=O)O)NC(=O)[C@H](C)NC(=O)[C@@H](N)Cc1c[nH]cn1)[C@@H](C)O)[C@@H](C)O)C(C)C)[C@@H](C)O)[C@@H](C)CC)C(=O)N[C@@H](CCCCN)C(=O)NCC(=O)N[C@@H](CCCCN)C(=O)N1CCC[C@H]1C(=O)N[C@@H](CCCCN)C(=O)N[C@@H](CCCCN)C(=O)N[C@H](C(=O)N[C@@H](CCCNC(=N)N)C(=O)N[C@@H](Cc1ccc(O)cc1)C(=O)N[C@@H](CO)C(N)=O)[C@@H](C)CC [compound 2] | 0.1 nM | 0.36 nM | –
2 | HAEGTFTNDMTNYLEEKAAKEFVGWLIKGRS-NH2 (C-terminus assumed) [compound 6] | 1 nM | 1.23 nM | –
3 | CC[C@H](C)[C@H](NC(=O)[C@H](CC(C)C)NC(=O)[C@H](Cc1c[nH]c2ccccc12)NC(=O)[C@H](CC(=O)O)NC(=O)[C@@H](NC(=O)[C@H](Cc1ccccc1)NC(=O)[C@H](CCC(=O)O)NC(=O)[C@H](CCCCN)NC(=O)[C@H](C)NC(=O)[C@H](C)NC(=O)[C@H](CCCCN)NC(=O)[C@H](CCC(=O)O)NC(=O)[C@H](CC(=O)O)NC(=O)[C@H](CC(C)C)NC(=O)[C@H](CCC(N)=O)NC(=O)[C@H](CCC(N)=O)NC(=O)[C@@H](NC(=O)[C@@H](NC(=O)[C@H](CC(=O)O)NC(=O)[C@H](CO)NC(=O)[C@@H](NC(=O)[C@H](Cc1ccccc1)NC(=O)[C@@H](NC(=O)CNC(=O)[C@H](CCC(=O)O)NC(=O)[C@H](C)NC(=O)[C@@H](N)Cc1c[nH]cn1)[C@@H](C)O)[C@@H](C)O)C(C)C)[C@@H](C)O)[C@@H](C)CC)C(=O)N[C@@H](CC(N)=O)C(=O)NCC(=O)NCC(=O)N1CCC[C@H]1C(=O)N[C@@H](CO)C(=O)N[C@@H](CCCCN)C(=O)N[C@@H](CCC(=O)O)C(=O)N[C@H](C(=O)N[C@H](C(=O)N[C@@H](CO)C(N)=O)[C@@H](C)CC)[C@@H](C)CC [compound 11] | – | 0.59 nM | –
4 | HAEGTFTSDVTQQLEEKAAKEFIEWLIKGKPKKIRYS-NH2 (C-terminus assumed) [compound 22] | – | 0.1 nM | –
5 | HAEFTYTNDVTEYLEEKAAKEFIEWLIKGGPSSGAPPPS-NH2 [compound 19] | – | – | Food Intake % inhibition 30 min [3]: 51%; Food Intake % inhibition 60 min [3]: 67%; Food Intake % inhibition 120 min [3]: 75%; Food Intake % inhibition 180 min ([3]; 180 min): 77%
6 | HAEGTFTSDVTQQLDEKAAKEFIDWLINGGPSSGAPPPS-NH2 (C-terminus assumed) [compound 9] | – | 0.28 nM | –
7 | HAEGTFTSDVTQQLDEKAAKEFIDALINGGPSKEIIS-NH2 (C-terminus assumed) [compound 13] | 74 nM | 196 nM | –
8 | HAEGTFTSDVTQQLDEKAAKEFIDWLINPGSEGIKSI-NH2 (C-terminus assumed) [compound 14] | 18 nM | 18 nM | –
9 | CC[C@H](C)[C@H](NC(=O)[C@H](Cc1ccccc1)NC(=O)[C@H](CCC(=O)O)NC(=O)[C@H](CCCCN)NC(=O)[C@H](C)NC(=O)[C@H](C)NC(=O)[C@H](CCC(N)=O)NC(=O)CNC(=O)[C@H](CCC(=O)O)NC(=O)[C@H](CC(C)C)NC(=O)[C@H](Cc1ccc(O)cc1)NC(=O)[C@H](CO)NC(=O)[C@H](CO)NC(=O)[C@@H](NC(=O)[C@H](CC(=O)O)NC(=O)[C@H](CO)NC(=O)[C@@H](NC(=O)[C@H](Cc1ccccc1)NC(=O)[C@@H](NC(=O)CNC(=O)[C@H](CCC(=O)O)NC(=O)[C@H](C)NC(=O)[C@@H](N)Cc1c[nH]cn1)[C@@H](C)O)[C@@H](C)O)C(C)C)C(=O)N[C@@H](C)C(=O)N[C@@H](Cc1c[nH]c2ccccc12)C(=O)N[C@@H](CC(C)C)C(=O)N[C@H](C(=O)N[C@@H](CCCCN)C(=O)NCC(=O)N[C@@H](CCCNC(=N)N)C(N)=O)C(C)C [compound 3] | – | – | Food Intake % inhibition 30 min [3]: 13%; Food Intake % inhibition 60 min [3]: 13%; Food Intake % inhibition 120 min [3]: 11%
10 | CC[C@H](C)[C@H](NC(=O)[C@H](CC(C)C)NC(=O)[C@H](Cc1c[nH]c2ccccc12)NC(=O)[C@H](CC(=O)O)NC(=O)[C@@H](NC(=O)[C@H](Cc1ccccc1)NC(=O)[C@H](CCC(=O)O)NC(=O)[C@H](CCCCN)NC(=O)[C@H](C)NC(=O)[C@H](C)NC(=O)[C@H](CCCCN)NC(=O)[C@H](CCC(=O)O)NC(=O)[C@H](CC(=O)O)NC(=O)[C@H](CC(C)C)NC(=O)[C@H](CCC(N)=O)NC(=O)[C@H](CCC(N)=O)NC(=O)[C@@H](NC(=O)[C@@H](NC(=O)[C@H](CC(=O)O)NC(=O)[C@H](CO)NC(=O)[C@@H](NC(=O)[C@H](Cc1ccccc1)NC(=O)[C@@H](NC(=O)CNC(=O)[C@H](CCC(=O)O)NC(=O)[C@H](C)NC(=O)[C@@H](N)Cc1c[nH]cn1)[C@@H](C)O)[C@@H](C)O)C(C)C)[C@@H](C)O)[C@@H](C)CC)C(=O)N[C@@H](CC(N)=O)C(N)=O [compound 7] | 3 nM | 4.7 nM | –
11 | HAEGTYTNDVTEYLEEKAAKEFIEWLINGGPSKEIIS-NH2 (C-terminus assumed) [compound 21] | – | 1 nM | –
12 | HAEGTFTSDVTQQLDEKAAKEFIDWLINGGASKEIIS-NH2 (C-terminus assumed) [compound 12] | – | 0.29 nM | –

More lines, main results first:

Row | IC50 [1] | GLP/GIP/CT cAMP(RIN) EC50 [2] | Molecule | also measured
13 | – | 382 nM | HADGTFTNDMTSYLDAKAARDFVSWLARSDKS-NH2 [compound 52] | –
14 | – | 0.576 nM | HGEGTYTNDVTQFLEEKAAKEFIDWLIKGKPKKQRLS-NH2 (C-terminus assumed) [compound 55] | –
15 | – | 971 nM | YADAPYISDVYSYLQDQVAKKWLKSGQD-NH2 [compound 51] | –
16 | 0.11 nM | 0.967 nM | HGEGTYTNDVTEYLEEKAAKEFIEWLIKGKPKKIRYS-NH2 (C-terminus assumed) [compound 26] | –
17 | – | 0.85 nM | HAEGTYTNDVTEYLEEKAAKEFIEWLIN-NH2 (C-terminus assumed) [compound 24] | –
18 | 0.36 nM | – | HAEGTYTNDVTEYLEEKAAKEFIEWLIKGPKKIRYS-NH2 (C-terminus assumed) [compound 36] | –
19 | 19 nM | – | HAEGTYTNDVTEYLEEKAAKFIEWLIKGKPKKIRYS-NH2 (C-terminus assumed) [compound 31] | –
20 | 0.28 nM | – | HAEGTYTNDVTEYLEEKAAKEFIEWLIGKPKKIRYS-NH2 (C-terminus assumed) [compound 35] | –
21 | 22 nM | – | HAEGTYTNDVTEYLEEKAAKEFIEWLIPKKIRYS-NH2 (C-terminus assumed) [compound 32] | –
22 | – | 0.53 nM | HAEGTYTNDVTEYLEEKAAKEFIEWLIK-NH2 (C-terminus assumed) [compound 25] | –
23 | 34 nM | 14 nM | HADGTYTSDVSSYLQDQAAKDFITWLKSGQPKPDAVET-NH2 [compound 48] | –
24 | – | 415 nM | HADGTYTSDVSSYLQDQAAKDFITWLKSGQPKPDAVETRSVDTL-NH2 [compound 49] | –
